Where a name gives a salt, the structure may show the parent alone.

These results are taken from US7049444B2, “3-azabicyclo[3.1.0]hexane derivatives useful in therapy” (Pfizer Inc., priority 1998, dated 2006).

`CC1(c2cccc(NS(C)(=O)=O)c2)C2CN(CCCc3ccccc3)CC21` (stereo not drawn) (as salt: tartrate) showed a melting point of 162 to 164 °C. The result for `CC1(c2cccc(NS(C)(=O)=O)c2)C2CN(CCc3ccc(C(F)(F)F)cc3)CC21` (stereo not drawn) reads 159 to 161 °C; that for `CC1(c2cccc(NS(C)(=O)=O)c2)C2CN(CCCc3ccccc3)CC21` (stereo not drawn) (as salt: toluenesulfonate), 182 to 184 °C; that for `CC1(c2cccc(NS(C)(=O)=O)c2)C2CN(CCCc3ccccc3)CC21` (stereo not drawn) (as salt: hydrochloride), 212 to 214 °C.

As for `CC1(c2cccc(NS(C)(=O)=O)c2)C2CN(CCCc3ccccc3)CC21` (stereo not drawn) (as salt: benzenesulfonate), the melting point is 166 to 168 °C.

`CC1(c2cccc(NS(C)(=O)=O)c2)C2CN(Cc3ccccc3)CC21` (stereo not drawn) [Example 22, N-[3-(3-Benzyl-6-methyl-3-azabicyclo[3.1.0]hex-6-yl)phenyl]methanesulfonamide] had a melting point of 117 to 118 °C.
